Assay results as given in patent publication US12102631B2, “Quinolylnitrones for the treatment and prevention of a cerebral stroke or ischaemia” (ISQUAEMIA BIOTECH, S.L., priority 2018, dated 2024).

Assays:
[1] = Superoxide radical scavenging (hypoxanthine/xanthine oxidase system); format: biochemical; conditions: tested at 100 μM (0.1 mM)
Excerpt: 3.7. Superoxide radical scavenging activity. Superoxide anion radical (O2⋅−) is less toxic than hydroxyl radical, but still one of the most known harmful toxic ROS. In physiological conditions, superoxide dismutase catalyzes its conversion to H2O2, which is the precursor for the formation of hydroxyl radicals in the presence of iron ions.43 Superoxide anion radicals O2⋅− and H2O2 are ROS produced in vivo through a one-electron reduction process of O2. The evaluation of superoxide anion radical scavenging activity can be determined using assays involving non-enzymatic or enzymatic production of superoxide anions. In this assay, superoxide anion radicals were generated by a hypoxanthine and xanthine oxidase reaction system, and the O2⋅− scavenging activity (%) has been measured spectrophotometrically.

[2] = tested on: primary neuronal cultures from rat cerebral cortex; test: Neuroprotection (MTT cell viability) in primary neuronal cultures exposed to oxygen-glucose deprivation (OGD); format: cell-based; conditions: 24 h recovery after 4 h OGD, R24 h = 0%, control = 100%
Experimental: Primary neuronal cultures. Primary neuronal cultures from rat cerebral cortex were prepared as previously described.^54 All procedures associated with animal experiments were approved by the Ethics Committee of the Hospital Ramón y Cajal, Madrid (Spain). Cell suspensions from cerebral cortex were prepared from 16- to 17-day-old Sprague-Dawley rat embryos. Living cells in cell suspension were counted by trypan blue exclusion method. Cells were seeded on plastic multidishes precoated with 0.05 mg/mL poly-D-lysine at a density of 2.5×10^5 cells/cm^2 and were kept at 37° C. in a 6.5% CO2 atmosphere in high glucose Dulbecco's medium supplemented with 15% heat-inactivated (56° C. for 30 min) foetal calf serum. After 24 h, cultured cells were […] to induce experimental ischemia.^23 Cultured cells were washed and placed in glucose-free Dulbecco's medium (bubbled with 95% N2/5% CO2 for 30 min), and maintained in a humidified hypoxia chamber equipped with an oxygen and carbon dioxide control unit (Biospherix) at 6.5% CO2 and <0.1% O2 in N2 at 37° C. Cells were exposed to OGD for a period of 4 h (OGD 4 h). At the end of the OGD period, culture medium was replaced with oxygenated serum-free medium, and cells were placed and maintained in the normoxic incubator for 24 h to recovery (R24 h). In the neuroprotection experiments, the compounds were added at the onset of recovery period. Control cultures in Dulbecco's medium containing glucose were kept in the normoxic incubator for the same period of time as the OGD, and then medium (Dulbecco's/Ham's F12, 1:1 [vol/vol], 5 mg/mL glucose, 2 mM L-glutamine, and 1 mM sodium pyruvate, and supplemented with 100 μg/mL transferrin, 100 μM putrescine, 20 nM progesterone, 30 nM sodium selenite and 5 μg/mL insulin). Here, 6-7 day old cultured neurons were used in the experiments, and contained 90% β-III-tubulin-positive mature neurons, as described previously.^55
Exposure of cell cultures to oxygen-glucose deprivation and treatments. Primary neuronal cultures were exposed to […]. Control experiments included the same amounts of vehicle (final concentration<0.5% ethanol). Nitrone 2 was used as reference compound for neuroprotection. The experimental procedures were blindly performed, assigning a random order to each assayed nitrone. Nitrones were analyzed independently four-eight times with different batch of cultures and each experiment was run in quadruplicate.
Cell viability assay. Cell viability was evaluated by quantification of living, metabolically active cells, as determined by a colorimetric assay using the photometric reduction of 3-(4,5-dimethylthiazol-2-yl)-2,5-diphenyl tetrazolium bromide (MTT) (Roche) to a blue formazan product. The assay of living, metabolically active cells was performed by incubating with 0.2 mg/mL MTT in the culture medium for 1.5 h in an incubator at 37° C. in a 6.5% CO2 atm. After the incubation period, cells were lysed with an equal volume of 10 mM HCl and 10% SDS overnight. Values were quantified by absorbance (test 595 nm, reference 690 nm). Decreased MTT activity denotes impairment of mitochondrial function and is considered to be an index of cell damage. Primary neuronal cultures were collected at times indicated for MTT determination.
Neuroprotection of compounds was evaluated by a cell viability assay. The neuroprotective effect of the compounds 5-32 was evaluated on primary neuronal cultures from cerebral cortex subjected to oxygen-glucose deprivation (OGD) to induce experimental ischemia. Afterwards, cultured neurons were placed and kept in normoxic and normoglycemic conditions to recovery. […]

| Compound | viability at 10 µM ([2]; Rattus norvegicus, 10 μM) | viability at 1 µM ([2]; Rattus norvegicus, 1 μM) | viability at 100 µM ([2]; Rattus norvegicus, 100 μM) | viability at 250 µM ([2]; Rattus norvegicus) | further results |
| --- | --- | --- | --- | --- | --- |
| O=C(O)/C=C/c1ccc(O)c(O)c1 [Caffeic acid, caffeic acid, reference compound] | – | – | – | – | O2*− (%) [1]: 15% |
| Cc1ccc2nc(Cl)c(/C=[N+](\[O-])Cc3ccccc3)cc2c1 [Compound 4, (Z)—N-benzyl-1-(2-chloro-6-methylquinolin-3-yl)methanimine oxide, reference compound] | 55.4 ± 1.74% | – | – | – | viability at 50 µM ([2]; Rattus norvegicus, 50 μM): 56.8 ± 2.57% |
| Cc1ccc2nc(Cl)c(C=NO)cc2c1 [Compound 6] | – | – | – | – | Neuroprotection (%) ([2]; 0.5 μM): 8.30 ± 0.62%; Neuroprotection (%) ([2]; 1 μM): 11.28 ± 1.32%; Neuroprotection (%) ([2]; 10 μM): <0%; Neuroprotection (%) ([2]; 100 μM): <0% |
| Cc1ccc2nc(Cl)c(/C=[N+](\[O-])c3ccccc3)cc2c1 [Compound 11, (Z)-1-(2-Chloro-6-methylquinolin-3-yl)-N-phenylmethanimine oxide] | 36.5 ± 1% | 21.1 ± 0.31% | < 0% | 1 ± 0.07% | – |
| Cc1ccc2ncc(/C=[N+](\[O-])Cc3ccccc3)cc2c1 [Compound 12, (Z)—N-Benzyl-1-(6-methylquinolin-3-yl)methanimine oxide] | 37.7 ± 0.66% | 37 ± 0.05% | 34.4 ± 0.67% | 34.11 ± 0.15% | – |
| Cc1ccc2[nH]c(=O)c(/C=[N+](\[O-])Cc3ccccc3)cc2c1 [Compound 13, (Z)—N-Benzyl-1-(6-methyl-2-oxo-1,2-dihydroquinolin-3-yl)methanimine oxide] | 35.9 ± 1.46% | – | 42 ± 1.86% | 29.8 ± 1.25% | – |
| COc1nc2ccc(C)cc2cc1/C=[N+](\[O-])Cc1ccccc1 [Compound 14, (Z)—N-Benzyl-1-(2-methoxy-6-methylquinolin-3-yl)methanimine oxide] | 23.7 ± 1.77% | 17.6 ± 1.11% | < 0% | – | – |
| CNc1nc2ccc(C)cc2cc1/C=[N+](\[O-])Cc1ccccc1 [Compound 15, (Z)—N-Benzyl-1-(6-methyl-2-(methylamino)quinolin-3-yl)methanimine oxide] | < 0% | 8.5 ± 0.18% | – | – | viability at 5 µM ([2]; Rattus norvegicus, 5 μM): 1.57 ± 0.03% |
| Cc1ccc2nc(N(C)C)c(/C=[N+](\[O-])Cc3ccccc3)cc2c1 [Compound 16, (Z)—N-Benzyl-1-(2-(dimethylamino)-6-methylquinolin-3-yl)methanimine oxide] | 34.3 ± 0.59% | 12.9 ± 0.34% | < 0% | < 0% | – |
| Cc1ccc2[nH]c(=O)c(/C=[N+](\[O-])C(C)(C)C)cc2c1 [Compound 17, (Z)—N-tert-Butyl-1-(6-methyl-2-oxo-1,2-dihydroquinolin-3-yl)methanimine oxide] | 20.2 ± 1.1% | – | 17.6 ± 1.35% | 10.9 ± 0.88% | – |
| [O-]/[N+](=C\c1cc2ccccc2nc1Cl)Cc1ccccc1 [Compound 20, (Z)—N-Benzyl-1-(2-chloroquinolin-3-yl)methanimine oxide] | < 0% | 32.8 ± 2.72% | < 0% | – | – |
| COc1nc2ccccc2cc1/C=[N+](\[O-])Cc1ccccc1 [Compound 21, (Z)—N-Benzyl-1-(2-methoxyquinolin-3-yl)methanimine oxide] | 24.2 ± 0.36% | < 0% | < 0% | – | – |
| [O-]/[N+](=C\c1cc2cc(O)ccc2nc1Cl)Cc1ccccc1 [Compound 25, (Z)—N-Benzyl-1-(2-chloro-6-hydroxyquinolin-3-yl)methanimine oxide] | < 0% | 25.15 ± 0.14% | < 0% | < 0% | – |
| [O-]/[N+](=C\c1cc2cc(Cl)ccc2nc1Cl)Cc1ccccc1 [Compound 26, (Z)—N-Benzyl-1-(2,6-dichloroquinolin-3-yl)methanimine oxide] | 37.7 ± 0.52% | 41.72 ± 0.3% | < 0% | 0.35 ± 0.02% | – |
| COc1ccc2cc(/C=[N+](\[O-])Cc3ccccc3)c(Cl)nc2c1 [Compound 27, (Z)—N-Benzyl-1-(2-chloro-7-methoxyquinolin-3-yl)methanimine oxide] | 28 ± 1.15% | 26.6 ± 0.37% | 19.4 ± 1.51% | – | – |
| COc1ccc(OC)c2nc(Cl)c(/C=[N+](\[O-])Cc3ccccc3)cc12 [Compound 28, (Z)—N-Benzyl-1-(2-chloro-5,8-dimethoxyquinolin-3-yl)methanimine oxide] | 38.6 ± 0.55% | 35.1 ± 0.84% | 44.27 ± 0.39% | – | – |
| CC(C)(C)/[N+]([O-])=C/c1cc2ccccc2n2nnnc12 [Compound 31, (Z)—N-tert-Butyl-1-(tetrazolo[1,5-a]quinolin-4-yl)methanimine oxide] | 9.84 ± 0.65% | 7.64 ± 0.14% | 5.83 ± 0.56% | – | – |
